Data: patent publication US20100075364A1, “METHOD FOR SELECTING MAMMAL TRANSFORMED CELLS” (FOOD AND DRUG SAFETY CENTER, priority 2008, published 2010)

What was measured:
Bhas 42 cells [1] = details: 0.0015% final, 24 hours
Procedure: In order to observe the morphology of a transformed focus and the morphology of normal cells existing around the transformed focus before and after a treatment with hydrogen peroxide, the following experiment was carried out using 3-methylcholanthrene (MCA) as an initiator. […] Thereafter, 0.2 mL of a medium containing hydrogen peroxide (0.0165%: 11 times higher than the final concentration that was 0.0015%) was added, and the transformed focus was then observed 24 hours after the addition of hydrogen peroxide.

[2] = test system: Hu-MI cells and human cancer cells (A549, FLC-5, HCT 116, MKN28); details: 0.003% final, 24 hours, day 14
Procedure: Whether or not human transformed cells can also be selected by treatment with hydrogen peroxide was analyzed. […] An experimental system was prepared, such that a large number of Hu-MI cells and a small number of human cancer cells (A549 cells: lung cancer; FLC-5 cells: liver cancer; HCT 116 cells: colon cancer; and MKN28 cells: stomach cancer) were simultaneously inoculated and such that they were co-cultured.
The Hu-MI cells (10^4 cells/well) and various types of cancer cells (500 cells/well for FLC-5 cells; and 100 cells/well for other cells) were each inoculated on a 6-well plate (2 mL of medium/well). On the 14th day after the inoculation, 0.2 mL of medium containing hydrogen peroxide (0.033%: 11 times higher than the final concentration that was 0.003%) was added thereto, and the cells were then observed 24 hours after the addition of hydrogen peroxide. As a medium, MEM+10% fetal bovine serum was used.

Bhas 42 cells [3] = details: depending on concentration and treatment time (1 to 24 hours)
Procedure: 1 to 24 hours later, 0.05 mL of a medium containing alamarBlue or WST-8 (0.01 mL of dye+0.04 mL of medium) was added. Three hours after the addition of the aforementioned medium, a fluorescence level (excitation: 530 nm; measurement: 590 nm) or absorbance (450 nm) was measured (FIG. 2).
In order to find conditions under which normal cells are killed but transformed cells survive, an experiment was carried out to obtain an appropriate concentration of hydrogen peroxide and an appropriate treatment time.

mouse lung tumor cells = details: 0.015% final, 24 hours, lung tumor slices
Procedure: Whether or not the transformed cells can be selected even in vivo was analyzed. The following experiment was carried out using rasH2 mice (human c-Ha-ras gene-introduced mice; female; 6-week-old). N-ethyl-N-nitrosourea used as an initiator was intraperitoneally administered to each mouse (120 mg/kg/10 mL of physiological saline). From 1 week after the administration of N-ethyl-N-nirosourea, butylhydroxytoluene used as a promoter was orally administered once a week, repeatedly for 7 weeks (400 mg/kg/10 mL of corn oil). Thereafter, the mouse was further bred for 2 weeks. […] The medium was left at rest in a CO2 incubator (5% CO2, 37° C.) for 24 hours, and the sample was then stained with a trypan blue solution (prepared by adding 0.002% trypan blue to phosphate buffered saline) for 10 minutes. It is to be noted that trypan blue is not incorporated into living cells but is incorporated into dead cells, and that it stains the cells blue.

Bhas 42 cells [4] = test: Selection of Bhas 42 transformed cells by BP treatment and light irradiation; type: cell-based, mouse; details: BP 20 ng/mL + light irradiation 2 J/cm^2 (UVA), observed 24 hours later
Procedure: Whether or not transformed cells can be selected using active oxygens other than hydrogen peroxide was analyzed. Since such active oxygens other than hydrogen peroxide are extremely unstable and have a short life time, they cannot be used as reagents. Accordingly, benzo(a)pyrene (BP) for generating superoxide anion radical as a result of light irradiation was utilized. Transformed foci were induced in Bhas 42 cells (by the method of Example 1), and the medium was then exchanged with a phosphate buffered saline (2 mL/well). […] Using a sunlight simulator, light was applied to the cells (300 to 800 nm; UVA irradiation intensity: 5.6 mW/cm^2; irradiation time: 6 minutes; irradiation dose: 2 J/cm^2), and the medium was then exchanged. Twenty-four hours later, the resultant cells were observed.

Bhas 42 cells [5] = test: Bhas 42 cell transformation test with MCA, hydrogen peroxide method with dye and Giemsa staining; type: cell-based, mouse; details: MCA 0.1, 0.3, 1 μg/mL for 3 days; 0.0015% hydrogen peroxide day 21, alamarBlue or WST-8
Procedure: A basic experiment was carried out as follows. In a Bhas 42 cell transformation test using a 96-well plate (0.1 mL of medium/well), 0.05 mL of a medium containing hydrogen peroxide (in a concentration 3 times higher than the final concentration) was added on the 21st day after cell inoculation. 1 to 24 hours later, 0.05 mL of a medium containing alamarBlue or WST-8 (0.01 mL of dye+0.04 mL of medium) was added.
Whether or not the transformation of Bhas 42 cells could be quantified with a dye was analyzed using MCA. The cells were inoculated (200 cells/0.05 mL of medium/well), and on the following day, 0.05 mL of a medium containing MCA (0.2, 0.6, and 2 μg/mL: all of which were 2 times higher than the final concentrations that were 0.1, 0.3, and 1 μg/mL, respectively) was added thereto. The cells were treated for 3 days, and a medium containing hydrogen peroxide (0.0045%: 3 times higher than the final concentration that was 0.0015%) was added thereto on the 21st day after cell inoculation. 24 hours later, a dye was added, and measurement was then carried out. Thereafter, 0.02 mL of glutaraldehyde (2.5%: approximately 10 times higher than the final concentration that was 0.25%) was further added, and the resultant cells were then left for 30 minutes or more for fixation. Thereafter, the cells were washed with water and were then subjected to Giemsa staining.

For `OO` [hydrogen peroxide], the “morphology of normal cells around the transformed focus after addition of hydrogen peroxide” value (Bhas 42 cells [1]; day 21) was “cytoplasm was denatured”, the “morphology of the transformed focus after addition of hydrogen peroxide” value (Bhas 42 cells [1]; day 21, foci induced by 1 μg/mL MCA) was “not changed” and the “fate of Hu-MI cells (considered normal cells)” value [2] was “died and were thereby removed”. The “fate of human cancer cells (A549, FLC-5, HCT 116, MKN28)” value [2] was “remained in the state of colonies and survived”, the “effect on normal cells versus transformed focus wells, absorbance of WST-8 as indicator” value (Bhas 42 cells [3]) was “specifically destroys normal cells” and the “trypan blue staining (dead cells) of tumor and non-tumor portion” value (mouse lung tumor cells) was “only the non-tumor portion was stained blue”.

In the case of `c1ccc2c(c1)cc1ccc3cccc4ccc2c1c34` [BP, benzo(a)pyrene], the “selection of the transformed cells” value (Bhas 42 cells [4]) was “observed only in the case of a BP treatment+light irradiation group”.

For `Cc1ccc2cc3c(ccc4ccccc43)c3c2c1CC3` [MCA, 3-methylcholanthrene], the “transformed foci and fluorescence level or absorbance” value (Bhas 42 cells [5]) was “increased depending on the dosage”.
